Earlier results as cited in patent publication US20180371365A1, “FABRIC SOFTENER COMPOSITIONS” (The Procter & Gamble Company, priority 2017, published 2018).

conditions: acidifying agents for compositions having pH 3.5 or greater

pKa	SMILES
5.1	CCCCCCC(=O)O [heptanoic acid]
7.0	OCl [hypochlorous acid]
7.0	c1c[nH]cn1 [imidazole]
5.2	CCCCCCCCC(=O)O [nonanoic acid]
4.6	O=C(O)C=Cc1ccc(O)cc1 [p-coumaric acid, 4-hydroxy cinnamic acid]
5.0	C=CCCCCCCCCC(=O)O [undecylenic acid]
